Each molecule was assayed against T1, PI3Kδ (Homo sapiens, UniProt O00329) (assay: PI3Kδ inhibition, modified PIK3CD Adapta TR-FRET assay). Conditions: recombinant GST-tagged full length PIK3CD co-expressed with PIK3R1 (p85α); 2 μM ATP, 50 μM PIP2; read-out: PI3Kδ Inhibition (pIC50) (converted).
T1 construct: The protein is full length and co-expressed with untagged PIK3R1; GST; purchased Invitrogen PV5274
Format: biochemical
Outline: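 Full-length GST-PIK3CD co-expressed with p85α was run in 50 mM HEPES pH 7.5, 3 mM MgCl2, 1 mM EGTA, 100 mM NaCl, 0.03% CHAPS, 2 mM DTT, 1% DMSO, with 12-point compound titrations. Reactions at room temperature were started with solution containing 2 μM ATP and 50 μM PIP2. ADP was detected by Adapta TR-FRET (620 nm-ratioed).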

T1 sequence (O00329 whole entry): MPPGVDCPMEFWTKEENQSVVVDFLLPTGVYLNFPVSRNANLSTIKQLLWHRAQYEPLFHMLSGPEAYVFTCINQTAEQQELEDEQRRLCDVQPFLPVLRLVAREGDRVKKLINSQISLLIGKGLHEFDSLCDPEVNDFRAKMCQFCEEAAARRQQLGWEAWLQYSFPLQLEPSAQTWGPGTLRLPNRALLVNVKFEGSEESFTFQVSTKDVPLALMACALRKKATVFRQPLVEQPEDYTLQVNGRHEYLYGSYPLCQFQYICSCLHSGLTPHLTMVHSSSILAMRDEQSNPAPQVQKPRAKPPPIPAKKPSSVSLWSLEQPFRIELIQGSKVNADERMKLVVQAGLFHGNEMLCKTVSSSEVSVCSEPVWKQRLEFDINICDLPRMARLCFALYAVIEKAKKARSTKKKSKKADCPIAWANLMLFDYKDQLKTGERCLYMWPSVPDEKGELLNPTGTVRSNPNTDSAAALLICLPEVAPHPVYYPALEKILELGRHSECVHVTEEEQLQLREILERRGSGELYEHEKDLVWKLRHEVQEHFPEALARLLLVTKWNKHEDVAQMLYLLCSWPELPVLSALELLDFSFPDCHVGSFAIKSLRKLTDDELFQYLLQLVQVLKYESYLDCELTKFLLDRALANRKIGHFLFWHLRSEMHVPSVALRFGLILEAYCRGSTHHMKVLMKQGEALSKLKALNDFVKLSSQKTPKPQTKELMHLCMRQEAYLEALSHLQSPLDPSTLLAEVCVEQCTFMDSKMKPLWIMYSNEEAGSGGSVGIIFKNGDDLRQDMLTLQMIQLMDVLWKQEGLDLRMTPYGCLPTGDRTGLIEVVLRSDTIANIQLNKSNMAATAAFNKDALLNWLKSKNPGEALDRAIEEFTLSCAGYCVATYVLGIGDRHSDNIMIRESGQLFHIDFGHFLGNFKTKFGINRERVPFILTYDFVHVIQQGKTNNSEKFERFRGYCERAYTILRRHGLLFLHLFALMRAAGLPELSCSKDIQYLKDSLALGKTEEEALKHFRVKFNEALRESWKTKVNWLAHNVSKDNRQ
T1 sequence (P27986 whole entry partner): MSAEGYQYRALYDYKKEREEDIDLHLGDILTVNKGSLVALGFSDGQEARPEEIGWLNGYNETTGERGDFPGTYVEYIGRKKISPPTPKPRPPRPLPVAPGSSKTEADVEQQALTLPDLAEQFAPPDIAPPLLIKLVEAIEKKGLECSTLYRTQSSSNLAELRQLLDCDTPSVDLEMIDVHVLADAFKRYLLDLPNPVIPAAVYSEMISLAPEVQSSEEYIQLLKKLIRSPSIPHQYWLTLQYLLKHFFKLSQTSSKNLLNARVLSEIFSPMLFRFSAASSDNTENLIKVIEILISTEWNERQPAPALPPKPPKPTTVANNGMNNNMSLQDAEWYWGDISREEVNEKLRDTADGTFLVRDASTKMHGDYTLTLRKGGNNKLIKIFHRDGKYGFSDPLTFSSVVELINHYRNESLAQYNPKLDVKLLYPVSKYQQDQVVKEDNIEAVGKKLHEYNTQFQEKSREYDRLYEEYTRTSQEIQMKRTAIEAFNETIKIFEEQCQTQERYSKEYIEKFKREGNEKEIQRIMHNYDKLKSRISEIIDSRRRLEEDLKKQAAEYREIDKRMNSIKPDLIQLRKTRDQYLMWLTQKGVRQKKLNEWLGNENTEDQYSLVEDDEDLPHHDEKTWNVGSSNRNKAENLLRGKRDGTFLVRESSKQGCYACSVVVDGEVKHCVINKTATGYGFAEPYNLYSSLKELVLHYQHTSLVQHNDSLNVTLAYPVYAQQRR

Compared with `COC(=O)c1cncc(N2C[C@@H]3COCCN3c3nc(-c4cccc5[nH]ccc45)ncc32)c1` [Example 199, (R)-methyl 5-(2-(1H-indol-4-yl)-6a,7,9,10-tetrahydro-[1,4]oxazino[3,4-h]pteridin-5(6H)-yl)nicotinate], `COc1cncc(N2C[C@@H]3COCCN3c3nc(-c4cccc5[nH]ccc45)ncc32)c1` [Example 201, (R)-2-(1H-indol-4-yl)-5-(5-methoxypyridin-3-yl)-5,6,6a,7,9,10-hexahydro-[1,4]oxazino[3,4-h]pteridine] is 79-fold lower in IC50: 1000 nM for the first, 12.6 nM for the second.

First: COC(=O)c1cc(N2C[C@@H]3COCCN3c3nc(-c4cccc5[nH]ccc45)ncc32)cnc1OC [Example 202, (R)-methyl 5-(2-(1H-indol-4-yl)-6a,7,9,10-tetrahydro-[1,4]oxazino[3,4-h]pteridin-5(6H)-yl)-2-methoxynicotinate]
Second: Cn1cc(NC(=O)CN2C[C@@H]3COCCN3c3nc(-c4cccc5[nH]ccc45)ncc32)cn1 [Example 206, (R)-2-(2-(1H-indol-4-yl)-6a,7,9,10-tetrahydro-[1,4]oxazino[3,4-h]pteridin-5(6H)-yl)-N-(1-methyl-1H-pyrazol-4-yl)acetamide]
The IC50 of the first is 20-fold lower: 2.51 nM for the first, 50.1 nM for the second.

First: O=C(CN1C[C@@H]2COCCN2c2nc(-c3cccc4[nH]ccc34)ncc21)Nc1ccncc1 [Example 203, (R)-2-(2-(1H-indol-4-yl)-6a,7,9,10-tetrahydro-[1,4]oxazino[3,4-h]pteridin-5(6H)-yl)-N-(pyridin-4-yl)acetamide]
Second: O=C(CN1C[C@@H]2COCCN2c2nc(-c3cccc4[nH]ccc34)ncc21)NC1CC1 [Example 207, (R)-2-(2-(1H-indol-4-yl)-6a,7,9,10-tetrahydro-[1,4]oxazino[3,4-h]pteridin-5(6H)-yl)-N-cyclopropylacetamide]
The IC50 of the first is 1.6-fold higher: 398 nM for the first, 251 nM for the second.

Going from `COCCNC(=O)CN1C[C@@H]2COCCN2c2nc(-c3cccc4[nH]ccc34)ncc21` [Example 204, (R)-2-(2-(1H-indol-4-yl)-6a,7,9,10-tetrahydro-[1,4]oxazino[3,4-h]pteridin-5(6H)-yl)-N-(2-methoxyethyl)acetamide] to `CC(C)(C#N)NC(=O)CN1C[C@@H]2COCCN2c2nc(-c3cccc4[nH]ccc34)ncc21` [Example 208, (R)-2-(2-(1H-indol-4-yl)-6a,7,9,10-tetrahydro-[1,4]oxazino[3,4-h]pteridin-5(6H)-yl)-N-(2-cyanopropan-2-yl)acetamide], the IC50 rises from 158 nM to 398 nM (2.5-fold).

Going from `O=C(CN1C[C@@H]2COCCN2c2nc(-c3cccc4[nH]ccc34)ncc21)NC1CCOCC1` [Example 205, (R)-2-(2-(1H-indol-4-yl)-6a,7,9,10-tetrahydro-[1,4]oxazino[3,4-h]pteridin-5(6H)-yl)-N-(tetrahydro-2H-pyran-4-yl)acetamide] to `CN(CC1CCOCC1)C(=O)CN1C[C@@H]2COCCN2c2nc(-c3cccc4[nH]ccc34)ncc21` [Example 212, (R)-2-(2-(1H-indol-4-yl)-6a,7,9,10-tetrahydro-[1,4]oxazino[3,4-h]pteridin-5(6H)-yl)-N-methyl-N-((tetrahydro-2H-pyran-4-yl)methyl)acetamide], the IC50 falls from 200 nM to 39.8 nM (5-fold).

Going from `CC(C)(C)C(N)CCN1C[C@@H]2COCCN2c2nc(-c3cccc4[nH]ccc34)ncc21` (stereo partly drawn) [Example 210, 1-((R)-2-(1H-indol-4-yl)-6a,7,9,10-tetrahydro-[1,4]oxazino[3,4-h]pteridin-5(6H)-yl)-4,4-dimethylpentan-3-amine] to `O=C(CN1C[C@@H]2COCCN2c2nc(-c3ccccc3CO)ncc21)NCC1CCOCC1` [Example 215, (R)-2-(2-(2-(hydroxymethyl)phenyl)-6a,7,9,10-tetrahydro-[1,4]oxazino[3,4-h]pteridin-5(6H)-yl)-N-((tetrahydro-2H-pyran-4-yl)methyl)acetamide], the IC50 falls from > 10000 nM to 5010 nM.

First: O=C(CN1C[C@@H]2COCCN2c2nc(-n3c(C(F)F)nc4ccccc43)ncc21)NCC1CCOCC1 [Example 211, (R)-2-(2-(2-(difluoromethyl)-1H-benzo[d]imidazol-1-yl)-6a,7,9,10-tetrahydro-[1,4]oxazino[3,4-h]pteridin-5(6H)-yl)-N-((tetrahydro-2H-pyran-4-yl)methyl)acetamide]
Second: O=C(CN1C[C@@H]2COCCN2c2nc(-c3cccc(OC(F)F)c3)ncc21)NCC1CCOCC1 [Example 217, (R)-2-(2-(3-(difluoromethoxy)phenyl)-6a,7,9,10-tetrahydro-[1,4]oxazino[3,4-h]pteridin-5(6H)-yl)-N-((tetrahydro-2H-pyran-4-yl)methyl)acetamide]
The IC50 of the first is 40-fold lower: 20 nM for the first, 794 nM for the second.

Compared with `O=C(CN1C[C@@H]2COCCN2c2nc(-c3ccc(CO)cc3)ncc21)NCC1CCOCC1` [Example 214, (R)-2-(2-(4-(hydroxymethyl)phenyl)-6a,7,9,10-tetrahydro-[1,4]oxazino[3,4-h]pteridin-5(6H)-yl)-N-((tetrahydro-2H-pyran-4-yl)methyl)acetamide], `CC(=O)Nc1ccc(-c2ncc3c(n2)N2CCOC[C@H]2CN3CC(=O)NCC2CCOCC2)cc1` [Example 224, (R)-2-(2-(4-acetamidophenyl)-6a,7,9,10-tetrahydro-[1,4]oxazino[3,4-h]pteridin-5(6H)-yl)-N-((tetrahydro-2H-pyran-4-yl)methyl)acetamide] is 6.3-fold lower in IC50: 2000 nM for the first, 316 nM for the second.

`COCc1cccc(-c2ncc3c(n2)N2CCOC[C@H]2CN3CC(=O)NCC2CCOCC2)c1` [Example 216, (R)-2-(2-(3-(methoxymethyl)phenyl)-6a,7,9,10-tetrahydro-[1,4]oxazino[3,4-h]pteridin-5(6H)-yl)-N-((tetrahydro-2H-pyran-4-yl)methyl)acetamide] and `N#Cc1cccc(-c2ncc3c(n2)N2CCOC[C@H]2CN3CC(=O)NCC2CCOCC2)c1` [Example 218, (R)-2-(2-(3-cyanophenyl)-6a,7,9,10-tetrahydro-[1,4]oxazino[3,4-h]pteridin-5(6H)-yl)-N-((tetrahydro-2H-pyran-4-yl)methyl)acetamide] are within 1.5-fold of each other in IC50: 1000 nM for the first, 1260 nM for the second.

First: O=C(CN1C[C@@H]2COCCN2c2nc(-c3ccc(F)c(CO)c3)ncc21)NCC1CCOCC1 [Example 220, (R)-2-(2-(4-fluoro-3-(hydroxymethyl)phenyl)-6a,7,9,10-tetrahydro-[1,4]oxazino[3,4-h]pteridin-5(6H)-yl)-N-((tetrahydro-2H-pyran-4-yl)methyl)acetamide]
Second: Nc1ccc(-c2ncc3c(n2)N2CCOC[C@H]2CN3CC(=O)NCC2CCOCC2)cn1 [Example 221, (R)-2-(2-(6-aminopyridin-3-yl)-6a,7,9,10-tetrahydro-[1,4]oxazino[3,4-h]pteridin-5(6H)-yl)-N-((tetrahydro-2H-pyran-4-yl)methyl)acetamide]
The IC50 of the first is 2-fold higher: 251 nM for the first, 126 nM for the second.

Compared with `CNC(=O)Nc1ccc(-c2ncc3c(n2)N2CCOC[C@H]2CN3CC(=O)NCC2CCOCC2)cc1` [Example 222, (R)-2-(2-(4-(3-methylureido)phenyl)-6a,7,9,10-tetrahydro-[1,4]oxazino[3,4-h]pteridin-5(6H)-yl)-N-((tetrahydro-2H-pyran-4-yl)methyl)acetamide], `O=C(CN1C[C@@H]2COCCN2c2nc(-c3ccsc3)ncc21)NCC1CCOCC1` [Example 223, (R)—N-((tetrahydro-2H-pyran-4-yl)methyl)-2-(2-(thiophen-3-yl)-6a,7,9,10-tetrahydro-[1,4]oxazino[3,4-h]pteridin-5(6H)-yl)acetamide] is 25-fold higher in IC50: 31.6 nM for the first, 794 nM for the second.

Reference: US8791107B2, “N-substituted oxazinopteridines and oxazinopteridinones” (Takeda Pharmaceutical Company Limited, priority 2011, dated 2014)
